Reference: US8557854B2, “Use of a sulfonamide compound for improving the pharmacokinetics of a drug” (Janssen R&D Ireland, priority 2005, dated 2013)
Where two headings read alike, the source gives them in different places. Blank lines part the entries; values can stand above or below the compound they belong to.

How the values were obtained:
[1] = type: in vivo, NZW rabbits
Caco-2 monolayers = experiment: Bi-directional protease inhibitor transport across Caco-2 monolayers (efflux ratio); type: in vitro ADME; settings: Caco-2, 100 μM
Description: (§1) The transport of experimental protease inhibitors was studied in Caco-2 monolayers grown to confluency.

CYP450 3A4 = target: T1, CYP450 3A4 (Homo sapiens, UniProt P08684); experiment: In vitro inhibition of CYP3A4: testosterone 6β-hydroxylation in human liver microsomes; type: biochemical
T1 construct: mediated by CYP450 3A4 in human liver microsomes; from tissue; host or cells: human liver microsomes

wild-type HIV-1 = settings: disclosed in WO 02/092595; cited from earlier work
[2] = test system: large panel of viruses resistant to currently known PIs; settings: disclosed in WO 02/092595; cited from earlier work
[3] = Bi-directional protease inhibitor transport across Caco-2 monolayers (efflux ratio); type: in vitro ADME; settings: human, Caco-2, control (no inhibitor), 90 min
Description: as §1

[4] = Phase I trial: effect of compound A on single dose pharmacokinetics of saquinavir in healthy subjects; settings: human, in vivo, 1000 mg
Procedure: [drawing 12] was used in a Phase I, open-label, randomized trial in healthy subjects to investigate the steady state pharmacokinetics of compound A, and its effect on the single dose pharmacokinetics of the protease inhibitor saquinavir. Three panels of 8 healthy subjects took a single dose of 1000 mg saquinavir alone, and while taking compound A. The pharmacokinetics of the two intakes of saquinavir was compared. On Day 1 in all panels, all subjects received a single dose of 1000 mg saquinavir. From Day 4 to Day 10, one group of healthy volunteers (Panel 1) received 60 mg compound A b.i.d., one group received 160 mg compound A b.i.d. (Panel 2) and one group took 400 mg compound A b.i.d. (Panel 3). On Day 9, all subjects took a single dose of 1000 mg saquinavir simultaneously with compound A. Full pharmacokinetic profiles of compound A were determined on Day 4, Day 8 and Day 9. Full pharmacokinetic profiles of saquinavir were determined on Day 1 and on Day 9.

T1 sequence (P08684 whole entry): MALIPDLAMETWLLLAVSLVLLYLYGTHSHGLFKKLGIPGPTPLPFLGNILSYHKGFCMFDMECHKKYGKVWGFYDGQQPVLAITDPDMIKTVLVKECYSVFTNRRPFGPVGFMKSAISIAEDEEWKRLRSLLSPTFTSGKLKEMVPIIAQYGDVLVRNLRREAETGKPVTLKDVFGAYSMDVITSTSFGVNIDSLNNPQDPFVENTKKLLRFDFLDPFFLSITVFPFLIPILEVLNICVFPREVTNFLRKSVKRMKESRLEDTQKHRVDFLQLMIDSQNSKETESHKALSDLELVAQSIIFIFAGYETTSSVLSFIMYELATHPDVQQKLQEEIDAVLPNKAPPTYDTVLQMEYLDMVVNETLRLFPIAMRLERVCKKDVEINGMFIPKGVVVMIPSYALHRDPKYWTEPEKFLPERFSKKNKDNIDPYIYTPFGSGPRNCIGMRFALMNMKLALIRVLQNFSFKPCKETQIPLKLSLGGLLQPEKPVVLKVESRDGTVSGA

Compound: CC(C)CN(C[C@@H](O)[C@H](Cc1ccccc1)NC(=O)OCc1cncs1)S(=O)(=O)c1ccc2nc(N)oc2c1 [Compound A, 5-thiazolylmethyl[(1S,2R)-3[[(2-amino-6-benzoxazolyl)sulfonyl]-(2-methylpropyl)amino]-2-hydroxy-1-(phenylmethyl)propyl]carbamate]
effect on plasma level of darunavir in rabbits [1]: increase | effect on transport polarity of protease inhibitors (Pgp efflux) (Caco-2 monolayers): significantly reduce the transport polarity | IC50 (CYP450 3A4; testosterone 6β-hydroxylation, read-out: IC50 of CYP3A4 mediated metabolism): 25 to 100 nM | Ki (CYP450 3A4; testosterone metabolism, non-competitive inhibition model, read-out: inhibition constant Ki of CYP3A4 inhibition): 65 nM | in vitro activity against wild-type HIV-1 (wild-type HIV-1): has in vitro activity | activity against a large panel of viruses resistant to currently known PIs [2]: has also activity

Compound: CC(C)CN(C[C@@H](O)[C@H](Cc1ccccc1)NC(=O)O[C@H]1CO[C@H]2OCC[C@H]21)S(=O)(=O)c1ccc2nc(NCCN3CCCC3)sc2c1 [Compound B]
efflux ratio at 90 min, 30 μM ([3]; compound B 30 μM, read-out: efflux ratio (ER) of compound B): 171

Compound: CCN1CCC[C@@H]1CNc1nc2ccc(S(=O)(=O)N(CC(C)C)C[C@@H](O)[C@H](Cc3ccccc3)NC(=O)O[C@H]3CO[C@H]4OCC[C@H]43)cc2s1 [Compound C]
efflux ratio at 90 min, 30 μM ([3]; compound C 30 μM, read-out: efflux ratio (ER) of compound C): 119

Continued, values first:

effect on plasma level of darunavir in rabbits [1]: increase
Compound: CC(C)CN(C[C@H](O)[C@@H](Cc1ccccc1)NC(=O)OCc1cncs1)S(=O)(=O)c1ccc2nc(N)oc2c1 [Compound E, 5-thiazolylmethyl[(1R,2S)-3[[(2-amino-6-benzoxazolyl)sulfonyl](2-methylpropyl)amino]-2-hydroxy-1-(phenylmethyl)propyl]carbamate]

tmax of saquinavir [4]: 5.0 (2.0-6.0) h | AUC(0-t) ([4]; AUClast of saquinavir): 515 ± 306 ng·h/mL | Cmax ([4]; Cmax of saquinavir): 117 ± 77.7 ng/mL | Tmax ([4]; tmax of saquinavir): 4.5 h
Compound: CC(C)(C)NC(=O)[C@@H]1C[C@@H]2CCCC[C@@H]2CN1C[C@@H](O)[C@H](Cc1ccccc1)NC(=O)[C@H](CC(N)=O)NC(=O)c1ccc2ccccc2n1 [saquinavir]
